Assay results published in ChEMBL document CHEMBL4004851, “Room Temperature Neutron Crystallography of Drug Resistant HIV-1 Protease Uncovers Limitations of X-ray Structural Analysis at 100 K” (J Med Chem, 2017).

What was measured:
[1] = system: Human immunodeficiency virus 1
Description: Binding affinity to wild type HIV1 protease assessed as deltaG level at pH 5.0 and 20 degC by ITC method

[2] = system: Human immunodeficiency virus type 1 protease (Human immunodeficiency virus 1), Q72874 [V32I,I47V,V82I]
[3] = system: Human immunodeficiency virus type 1 protease (Human immunodeficiency virus 1), Q72874 [V32I,I47V,V82I]; remark: listed apart in the source
[4] = target: T1, Human immunodeficiency virus type 1 protease (Human immunodeficiency virus 1, UniProt Q72874, I47V/V32I/V82I); assay: Binding affinity to HIV1 protease V32I/I47V/V82I triple mutant at pH 4.0 and 28 degC by ITC method
T1 sequence (Q72874 entry or part of it I47V/V32I/V82I): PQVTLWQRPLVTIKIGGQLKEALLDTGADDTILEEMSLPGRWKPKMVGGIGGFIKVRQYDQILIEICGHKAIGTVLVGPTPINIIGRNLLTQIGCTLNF

[5] = system: Human immunodeficiency virus type 1 protease (Human immunodeficiency virus 1), Q72874 [V32I,I47V,V82I]; remark: listed apart in the source
[6] = system: Human immunodeficiency virus type 1 protease (Human immunodeficiency virus 1), Q72874 [V32I,I47V,V82I]; remark: listed apart in the source
[7] = target: T1, Human immunodeficiency virus type 1 protease; assay: Binding affinity to HIV1 protease V32I/I47V/V82I triple mutant at pH 5.8 and 28 degC by ITC method
[8] = system: Human immunodeficiency virus 1; remark: listed apart in the source
Description: Binding affinity to wild type HIV1 protease assessed as deltaS level at pH 5.0 and 20 degC by ITC method

[9] = system: Human immunodeficiency virus type 1 protease (Human immunodeficiency virus 1), Q72874 [V32I,I47V,V82I]; remark: listed apart in the source
[10] = system: Human immunodeficiency virus 1; remark: listed apart in the source
Description: Binding affinity to wild type HIV1 protease assessed as deltaH level at pH 5.0 and 20 degC by ITC method

[11] = system: Human immunodeficiency virus 1; assay: Binding affinity to wild type HIV1 protease assessed as -TdeltaS level at pH 5.0 and 20 degC by ITC method
[12] = system: Human immunodeficiency virus type 1 protease (Human immunodeficiency virus 1), Q72874 [V32I,I47V,V82I]; remark: listed apart in the source
[13] = system: Human immunodeficiency virus type 1 protease (Human immunodeficiency virus 1), Q72874 [V32I,I47V,V82I]; remark: listed apart in the source
[14] = system: Human immunodeficiency virus type 1 protease (Human immunodeficiency virus 1), Q72874 [V32I,I47V,V82I]; remark: listed apart in the source
[15] = Binding affinity to wild type HIV1 protease at pH 5.0 and 20 degC by ITC method; design: species or system Human immunodeficiency virus 1

Chain of Human immunodeficiency virus type 1 protease (Human immunodeficiency virus 1), Q72874 [V32I,I47V,V82I] (Q72874 entry or part of it V32I/I47V/V82I): as the sequence (Q72874 entry or part of it I47V/V32I/V82I) above

CC(C)CN(C[C@@H](O)[C@H](Cc1ccccc1)NC(=O)O[C@H]1CCOC1)S(=O)(=O)c1ccc(N)cc1 [AMPRENAVIR]
deltaG [1]: -12.6 kcal/mol
deltaS [2]: 14 cal/mol.K
deltaH [3]: -6.8 kcal/mol
Ki [4]: 10 nM
-TdeltaS [5]: -4.2 kcal/mol
deltaG [6]: -11 kcal/mol
Ki [7]: 35 nM
deltaS [8]: 18.1 cal/mol.K
deltaG [9]: -10.2 kcal/mol
deltaH [10]: -7.3 kcal/mol
-TdeltaS [11]: -5.3 kcal/mol
deltaS [12]: 14.3 cal/mol.K
deltaH [13]: -6 kcal/mol
-TdeltaS [14]: -4.3 kcal/mol
Ki [15]: 0.39 nM
